SMILES | melting point
O=C1NCc2cnc(Nc3ccc(N4CCCC(O)C4)cc3)nc2N1C1CCCC1 (centres unmarked) [Example 16, 1-Cyclopentyl-7-[4-(3-hydroxypiperidin-1-yl)phenylamino]-3,4-dihydro-pyrimido[4,5-d]pyrimidin-2(1H)-one] | > 200 °C (dec.)
CC1CN(c2ccc(Nc3ncc4c(n3)N(C3CCCC3)C(=O)NC4)cc2)CC(C)N1 (centres unmarked) [Example 18, 1-Cyclopentyl-7-[4-(3,5-dimethylpiperazin-1-yl)phenylamino]-3,4-dihydro-pyrimido[4,5-d]pyrimidin-2(1H)-one] | > 200 °C (dec.)
O=c1ncc2cnc(Nc3ccc(-n4cccn4)cc3)nc2n1C1CCCC1 [Example 36, 1-Cyclopentyl-7-[4-(pyrazol-1-yl)phenylamino]pyrimido[4,5-d]pyrimidin-2(1H)-one] | > 135 °C (dec.)
O=C1NCc2cnc(Nc3ccc(N4CCC(CCCO)CC4)cc3)nc2N1C1CCCC1 [Example 20, 1-Cyclopentyl-7-{4-[4-(3-hydroxypropyl)piperidin-1-yl]phenylamino}-3,4-dihydro-pyrimido[4,5-d]pyrimidin-2(1H)-one] | > 230 °C
O=C1NCc2cnc(Nc3ccc(N4CCCCC4CO)cc3)nc2N1C1CCCC1 (centres unmarked) [Example 19, 1-Cyclopentyl-7-[4-(2-hydroxymethylpiperidin-1-yl)phenylamino]-3,4-dihydro-pyrimido[4,5-d]pyrimidin-2(1H)-one] | 220 to 221 °C
CN1CCN(c2ccc(Nc3ncc4c(n3)N(C3CCCC3)C(=O)NC4)cc2)CC1 [Example 11, 1-Cyclopentyl-7-[4-(4-methylpiperazin-1-yl)phenylamino]-3,4-dihydro-pyrimido[4,5-d]pyrimidin-2(1H)-one] | 236 to 239 °C (dec.)
CC(C)N1C(=O)NCc2cnc(Nc3ccc(N4CCC(N(C)C)CC4)cc3)nc21.O=C(O)C(F)(F)F [Example 24, 7-{4-[4-(Dimethylamino)piperidin-1-yl]phenylamino}-1-isopropyl-3,4-dihydro-pyrimido[4,5-d]pyrimidin-2(1H)-one; compound with trifluoroacetic acid] | 215 to 217 °C (dec.)
CN1CCN(c2ccc(Nc3ncc4cnc(=O)n(C5CCCC5)c4n3)cc2)CC1 [Example 32, 1-Cyclopentyl-7-[4-(4-methylpiperazin-1-yl)phenylamino]pyrimido-[4,5-d]pyrimidin-2(1H)-one] | 220 to 225 °C (dec.)
CC(C)N1C(=O)NCc2cnc(Nc3ccc(-n4cccn4)cc3)nc21.O=C(O)C(F)(F)F [Example 25, 1-Isopropyl-7-[4-(pyrazol-1-yl)phenylamino]-3,4-dihydro-pyrimido[4,5-d]pyrimidin-2(1H)-one; compound with trifluoroacetic acid] | 249 to 252 °C (dec.)
O=C1NCc2cnc(Nc3ccc(N4CCC(O)CC4)cc3)nc2N1C1CCCC1 [Example 15, 1-Cyclopentyl-7-[4-(4-hydroxypiperidin-1-yl)phenylamino]-3,4-dihydro-pyrimido [4,5-d]pyrimidin-2(1H)-one] | > 200 °C (dec.)
C[S+]([O-])c1ncc2c(n1)N(C1CCCC1)C(=O)NC2 (centres unmarked) [Example 5, 1-Cyclopentyl-7-methanesulfinyl-3,4-dihydro-pyrimido[4,5-d]pyrimidin-2(1H)-one] | 235 to 236 °C (dec.)
CCN(CC)CCOc1ccc(Nc2ncc3c(n2)N(C2CCCC2)C(=O)NC3)cc1C [Example 13, 1-Cyclopentyl-7-{3-methyl-4-[2-(diethylamino)ethoxy]phenylamino}-3,4-dihydro-pyrimido[4,5-d]pyrimidin-2(1H)-one] | 175 to 177 °C
O=c1ncc2cnc(Nc3ccc(N4CCCC(O)C4)cc3)nc2n1C1CCCC1 (centres unmarked) [Example 35, 1-Cyclopentyl-7-[4-(3-hydroxypiperidin-1-yl)phenylamino]pyrimido[4,5-d]-pyrimidin-2(1H)-one] | > 135 °C (dec.)
CC(C)N1C(=O)NCc2cnc([S+](C)[O-])nc21 (centres unmarked) [Example 6, 1-Isopropyl-7-methanesulfinyl-3,4-dihydro-pyrimido[4,5-d]pyrimidin-2(1H)-one] | 218 to 219 °C (dec.)
O=C1NCc2cnc(Nc3ccc(N4CCCCC4)cc3)nc2N1C1CCCC1 [Example 10, 1-Cyclopentyl-7-[4-(piperidin-1-yl)phenylamino]-3,4-dihydro-pyrimido [4,5-d]pyrimidin-2(1H)-one] | 254 to 277 °C (dec.)

The remaining lines, values ahead:

melting point | SMILES
189 to 191 °C | CCN1C(=O)N(c2cc(OC)cc(OC)c2Cl)Cc2cnc(SC)nc21 [Example 63, 3-(2-Chloro-3,5-dimethoxy-phenyl)-1-ethyl-7-methylsulfanyl-3,4-dihydro-pyrimido[4,5-d]pyrimidin-2(1H)-one]
203 to 207 °C | CCN(CC)CCCCNc1ncc2c(n1)NC(=O)N(c1cc(OC)cc(OC)c1)C2 [Example 52, 7-(4-Diethylamino-butylamino)-3-(3,5-dimethoxy-phenyl)-3,4-dihydro-pyrimido[4,5-d]pyrimidin-2(1H)-one]
198 to 202 °C (dec.) | CN(C)C1CCN(c2ccc(Nc3ncc4cnc(=O)n(C)c4n3)cc2)CC1 [Example 46, 7-{4-[4-(Dimethylamino)piperidin-1-yl]phenylamino}-1-methyl-pyrimido[4,5-d]pyrimidin-2(1H)-one]
220 to 222 °C | COc1cc(OC)cc(N2Cc3cnc([S+](C)[O-])nc3NC2=O)c1 (centres unmarked) [Example 51, 3-(3,5-Dimethoxy-phenyl)-7-methanesulfinyl-3,4-dihydro-pyrimido [4,5-d]pyrimidin-2(1H)-one]
148 to 150 °C (dec.) | COc1ccc(Cn2c(=O)c3cnc(-n4ccnc4)nc3n(C(C)C)c2=O)cc1 [Example 69, 7-(Imidazol-1-yl)-1-isopropyl-3-(4-methoxybenzyl)-1H-pyrimido[4,5-d]pyrimidine-2,4-dione]
116.5 to 118.5 °C | CCNc1nc(SC)ncc1CNc1cc(OC)cc(OC)c1Cl [Example 62, {5-[(2-Chloro-3,5-dimethoxy-phenylamino)-methyl]-2-methylsulfanyl-pyrimidin-4-yl}-ethyl-amine]
139 to 141 °C | CCN(CC)CCOc1ccc(Nc2ncc3c(=O)n(Cc4ccc(OC)cc4)c(=O)n(C(C)C)c3n2)cc1 [Example 73, 7-[4-(2-Diethylaminoethoxy)phenylamino]-1-isopropyl-3-(4-methoxybenzyl)-1H-pyrimido[4,5-d]pyrimidine-2,4-dione]
158 to 160 °C | C=CCn1c(=O)c2cnc(-n3ccnc3)nc2n(C(C)C)c1=O [Example 68, 3-Allyl-7-(imidazol-1-yl)-1-isopropyl-1H-pyrimido [4,5-d]pyrimidine-2,4-dione]
> 100 °C (dec.) | CC(C)n1c(=O)ncc2cnc(Nc3ccc(N4CCC(N(C)C)CC4)cc3)nc21 [Example 41, 7-{4-[4-(Dimethylamino)piperidin-1-yl]phenylamino}-1-isopropyl-pyrimido[4,5-d]pyrimidin-2(1H)-one]
215 to 216 °C | COc1ccc(Cn2c(=O)c3cnc(Nc4ccc(N5CCN(C)CC5)cc4)nc3n(C(C)C)c2=O)cc1 [Example 71, 1-Isopropyl-3-(4-methoxybenzyl)-7-[4-(4-methylpiperazin-1-yl)phenylamino]-1H-pyrimido[4,5-d]pyrimidine-2,4-dione]
100 to 105 °C | CCNc1nc(SC)ncc1C=Nc1cc(OC)cc(OC)c1 [Example 48a, {5-[(3,5-Dimethoxy-phenylimino)-methyl]-2-methylsulfanyl-pyrimidin-4-yl}-ethyl-amine]

From patent US7501425B1, “Bicyclic pyrimidines and bicyclic 3,4-dihydropyprimidines as inhibitors of cellular proliferation” (Warner Lambert Company, priority 1999, dated 2009)
